Several values for one entry are separate records, joined by “and”; a condition that tells them apart may be missing. Identical values can stand only once. Inconclusive results and toxic doses are left out. How the source made its calls: active means survival T/C of 150% or more; inactive means T/C below 125% in these data.
System: P388 leukemia ip, CD2F1 mice, survival T/C
Assay: NCI In Vivo Anticancer Drug Screen. Data for tumor model P388 Leukemia (intraperitoneal) in CD2F1 (CDF1) mice
Conditions: endpoint: median survival time, higher = longer survival
Procedure, shortened: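 Mice carrying the transplanted tumor received test compound or vehicle. Survival was recorded in each group, and the value is the treated-group measurement divided by that of the vehicle-treated control group.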

[1] = dose: 50.0 mg/kg/injection, schedule: Q01DX005 (ip), vehicle: saline with Tween-80
[2] = dose: 100.0 mg/kg/injection, schedule: Q01DX005 (ip), vehicle: saline with Tween-80
[3] = dose: 200.0 mg/kg/injection, schedule: Q01DX005 (ip), vehicle: saline with Tween-80
[4] = dose: 25.0 mg/kg/injection, schedule: Q01DX001 (ip), vehicle: Klucel (hydroxypropylcellulose) (HPC)
[5] = dose: 50.0 mg/kg/injection, schedule: Q01DX001 (ip), vehicle: Klucel (hydroxypropylcellulose) (HPC)
[6] = dose: 50.0 mg/kg/injection, schedule: Q01DX005 (ip), vehicle: Klucel (hydroxypropylcellulose) (HPC)
[7] = dose: 100.0 mg/kg/injection, schedule: Q01DX005 (ip), vehicle: Klucel (hydroxypropylcellulose) (HPC)
[8] = dose: 200.0 mg/kg/injection, schedule: Q01DX005 (ip), vehicle: Klucel (hydroxypropylcellulose) (HPC)
[9] = dose: 15.0 mg/kg/injection, schedule: Q01DX005 (ip), vehicle: saline with Tween-80
[10] = dose: 30.0 mg/kg/injection, schedule: Q01DX005 (ip), vehicle: saline with Tween-80
[11] = dose: 60.0 mg/kg/injection, schedule: Q01DX005 (ip), vehicle: saline with Tween-80
[12] = dose: 60.0 mg/kg/injection, schedule: Q01DX005 (ip), vehicle: saline
[13] = dose: 120.0 mg/kg/injection, schedule: Q01DX005 (ip), vehicle: saline
[14] = dose: 240.0 mg/kg/injection, schedule: Q01DX005 (ip), vehicle: saline
[15] = dose: 12.5 mg/kg/injection, schedule: Q01DX005 (ip), vehicle: saline with Tween-80
[16] = dose: 25.0 mg/kg/injection, schedule: Q01DX005 (ip), vehicle: saline with Tween-80

Measured: T/C

C1CCN(CCC[Si]23OCCN(CCO2)CCO3)CC1
inactive: [1] 102 % of control | [2] 108 % of control | [3] 106 % of control

O=[N+]([O-])c1ccc(N/N=C\c2cccc3c(/C=N/Nc4ccc([N+](=O)[O-])cc4[N+](=O)[O-])c(Cl)n(-c4ccccc4)c23)c([N+](=O)[O-])c1
inactive: [4] 102 % of control | [5] 95 % of control | dose: 100.0 mg/kg/injection, schedule: Q01DX001 (ip), vehicle: Klucel (hydroxypropylcellulose) (HPC) 93 % of control

Cc1ccc(N=C(N)N/N=C/c2ccc3c(c2)Cc2ccccc2-3)cc1
inactive: dose: 25.0 mg/kg/injection, schedule: Q04DX002 (ip), vehicle: saline with Tween-80 106 % of control | dose: 50.0 mg/kg/injection, schedule: Q04DX002 (ip), vehicle: saline with Tween-80 107 % of control

CN(C)CCCNCC#CCNCCCN(C)C
inactive: dose: 50.0 mg/kg/injection, schedule: Q01DX009 (ip), vehicle: saline 100 % of control | dose: 100.0 mg/kg/injection, schedule: Q01DX009 (ip), vehicle: saline 105 % of control | dose: 200.0 mg/kg/injection, schedule: Q01DX009 (ip), vehicle: saline 105 % of control

CCC1(O)CC(OC2CC(N(C)C)C(OC3CC(O)C(OC4CC(O)C(O)C(C)O4)C(C)O3)C(C)O2)c2c(cc3c(c2O)C(=O)c2c(O)ccc(O)c2C3=O)C1C(=O)OC (stereo not drawn)
inactive: dose: 3.13 mg/kg/injection, schedule: Q04DX003 (ip), vehicle: Klucel (hydroxypropylcellulose) (HPC) 105 % of control | dose: 6.25 mg/kg/injection, schedule: Q04DX003 (ip), vehicle: Klucel (hydroxypropylcellulose) (HPC) 99 % of control | dose: 12.5 mg/kg/injection, schedule: Q04DX003 (ip), vehicle: Klucel (hydroxypropylcellulose) (HPC) 105 % of control | dose: 25.0 mg/kg/injection, schedule: Q04DX003 (ip), vehicle: Klucel (hydroxypropylcellulose) (HPC) 118 % of control

CC(=O)NC(CCCCN)C(=O)O (stereo not drawn)
inactive: [6] 103 % of control | [7] 101 % of control | [8] 102 % of control

CCCCCCCCCCCOCC(=O)OC
inactive: dose: 50.0 mg/kg/injection, schedule: Q01DX009 (ip), vehicle: saline with Tween-80 99 % of control | dose: 100.0 mg/kg/injection, schedule: Q01DX009 (ip), vehicle: saline with Tween-80 101 % of control | dose: 200.0 mg/kg/injection, schedule: Q01DX009 (ip), vehicle: saline with Tween-80 100 % of control

CCCCN1C(=O)NC(C)C1=O (stereo not drawn)
inactive: [1] 99 % of control | [2] 108 % of control | [3] 103 % of control

S=c1n(-c2ccc(Cl)cc2)c2/c(=N\Nc3cc(Cl)ccc3Cl)c(n1-c1ccccn1)=NCCN=2
inactive: [9] 98 % of control | [10] 112 % of control | [11] 99 % of control and 112 % of control

C1C[N+]2(CCO1)CC[N+]1(CCOCC1)CC2
inactive: [12] 110 % of control | [13] 101 % of control | [14] 101 % of control

O=C(O)C(Cc1c[nH]c2ccc(O)cc12)NCC1(O)OCC(O)C(O)C1O (stereo not drawn)
inactive: [12] 97 % of control | [13] 99 % of control | [14] 98 % of control

CC(CNc1nc(Nc2ccc(Cl)c(Cl)c2)nc(C(Cl)(Cl)Cl)n1)N(C)C (stereo not drawn)
inactive: dose: 3.13 mg/kg/injection, schedule: Q01DX009 (ip), vehicle: distilled water + Tween-80 109 % of control | dose: 3.13 mg/kg/injection, schedule: Q01DX009 (ip), vehicle: water 90 % of control | dose: 6.25 mg/kg/injection, schedule: Q01DX009 (ip), vehicle: distilled water + Tween-80 118 % of control | dose: 6.25 mg/kg/injection, schedule: Q01DX009 (ip), vehicle: water 99 % of control | dose: 12.5 mg/kg/injection, schedule: Q01DX009 (ip), vehicle: distilled water + Tween-80 98 % of control and 120 % of control | dose: 12.5 mg/kg/injection, schedule: Q01DX009 (ip), vehicle: water 99 % of control | dose: 25.0 mg/kg/injection, schedule: Q01DX009 (ip), vehicle: distilled water + Tween-80 113 % of control and 94 % of control | dose: 25.0 mg/kg/injection, schedule: Q01DX009 (ip), vehicle: water 101 % of control | dose: 50.0 mg/kg/injection, schedule: Q01DX009 (ip), vehicle: distilled water + Tween-80 109 % of control and 94 % of control | dose: 50.0 mg/kg/injection, schedule: Q01DX009 (ip), vehicle: water 101 % of control

COc1ccc(N=Nc2c(C)nn(C(N)=S)c2C)cc1
inactive: dose: 100.0 mg/kg/injection, schedule: Q04DX002 (ip), vehicle: Klucel (hydroxypropylcellulose) (HPC) 93 % of control | dose: 200.0 mg/kg/injection, schedule: Q04DX002 (ip), vehicle: Klucel (hydroxypropylcellulose) (HPC) 92 % of control | dose: 400.0 mg/kg/injection, schedule: Q04DX002 (ip), vehicle: Klucel (hydroxypropylcellulose) (HPC) 94 % of control

N=C(N)c1nn(C2OC(CO)C(O)C2O)c2nc[nH]c(=O)c12 (stereo not drawn)
inactive: [15] 121 % of control | [16] 124 % of control

CC1(C)C[C@@]2(F)C(=O)NC(=O)N[C@@H]12
inactive: dose: 12.5 mg/kg/injection, schedule: Q01DX001 (ip), vehicle: Klucel (hydroxypropylcellulose) (HPC) 103 % of control | [4] 106 % of control | [5] 99 % of control

Cc1nccc2c(C)c3c(cc12)c1ccccc1n3C
inactive: dose: 5.0 mg/kg/injection, schedule: Q01DX005 (ip), vehicle: saline 107 % of control | dose: 10.0 mg/kg/injection, schedule: Q01DX005 (ip), vehicle: saline 107 % of control | dose: 20.0 mg/kg/injection, schedule: Q01DX005 (ip), vehicle: saline 99 % of control

O=C(O)COc1nc(Cl)c(Cl)cc1Cl
inactive: dose: 60.0 mg/kg/injection, schedule: Q01DX005 (ip), vehicle: Klucel (hydroxypropylcellulose) (HPC) 101 % of control and 104 % of control | dose: 120.0 mg/kg/injection, schedule: Q01DX005 (ip), vehicle: Klucel (hydroxypropylcellulose) (HPC) 103 % of control | dose: 240.0 mg/kg/injection, schedule: Q01DX005 (ip), vehicle: Klucel (hydroxypropylcellulose) (HPC) 113 % of control and 94 % of control

CC(=O)O[C@H]1CC[C@@]2(C)C(CC[C@]3(C)C2CC=C2[C@@H]4CC(C)(C)CC[C@]4(C(=O)NCCN(C)C)CCC23C)C1(C)C (stereo partly drawn)
inactive: dose: 7.5 mg/kg/injection, schedule: Q01DX005 (ip), vehicle: saline with Tween-80 99 % of control | [9] 100 % of control | [10] 99 % of control | [11] 103 % of control

CCc1nc2c(cnn2C)c(=O)n1-c1ccccc1Cl
inactive: [6] 100 % of control | [7] 100 % of control | [8] 102 % of control

CN1C(C)(C)CC(C(=O)c2ccccc2)(c2ccccc2)CC1(C)C
inactive: dose: 50.0 mg/kg/injection, schedule: Q01DX005 (ip), vehicle: saline + Tween-80 + alcohol 107 % of control | dose: 100.0 mg/kg/injection, schedule: Q01DX005 (ip), vehicle: saline + Tween-80 + alcohol 100 % of control

CN1c2ccccc2S(=O)(=O)n2c(COc3ccc(Cl)cc3)nnc21
inactive: [15] 100 % of control | [16] 100 % of control | [1] 106 % of control

CC1(C)C2CC[C@@]1(CS(=O)(=O)N(CCCl)CCCl)C(=O)C2
inactive: dose: 30.0 mg/kg/injection, schedule: Q01DX005 (ip), vehicle: saline 99 % of control | [12] 98 % of control | [13] 96 % of control | [14] 96 % of control

Reference: PubChem BioAssay AID330 (DTP/NCI, 2004)
